The NIST ThermoML archive (doi:10.1016/j.jct.2003.11.008)

Key:
[1] = excess molar enthalpy (molar enthalpy of mixing); xn = mol fraction of the nth substance listed; conditions: 318.15 K, 101.3 kPa, Liquid
[2] = xn = mol fraction of the nth substance listed; conditions: 318.15 K, 101.3 kPa, Liquid

CCCCCCCCCCCCC [tridecane] + CCOC(C)=O
Conditions | excess molar enthalpy [kcal/mol] | excess molar volume [m3/mol]
[1], x2 = 0.0838 | 0.122 | –
[1], x2 = 0.1616 | 0.217 | –
[1], x2 = 0.2388 | 0.302 | –
[1], x2 = 0.3097 | 0.371 | –
[1], x2 = 0.3743 | 0.42 | –
[1], x2 = 0.4307 | 0.449 | –
[1], x2 = 0.4842 | 0.467 | –
[1], x2 = 0.532 | 0.478 | –
[1], x2 = 0.5728 | 0.479 | –
[1], x2 = 0.6188 | 0.474 | –
[1], x2 = 0.6556 | 0.463 | –
[1], x2 = 0.6946 | 0.449 | –
[1], x2 = 0.7336 | 0.427 | –
[1], x2 = 0.7755 | 0.396 | –
[1], x2 = 0.8179 | 0.354 | –
[1], x2 = 0.8605 | 0.3 | –
[1], x2 = 0.9015 | 0.239 | –
[1], x2 = 0.9432 | 0.161 | –
[1], x2 = 0.9761 | 0.0749 | –
[2], x2 = 0.1246 | – | 6.09e-07
[2], x2 = 0.2249 | – | 9.81e-07
[2], x2 = 0.3076 | – | 1.215e-06
[2], x2 = 0.3854 | – | 1.386e-06
[2], x2 = 0.4562 | – | 1.461e-06
[2], x2 = 0.5148 | – | 1.515e-06
[2], x2 = 0.5732 | – | 1.518e-06
[2], x2 = 0.6235 | – | 1.506e-06
[2], x2 = 0.6695 | – | 1.462e-06
[2], x2 = 0.7136 | – | 1.402e-06
[2], x2 = 0.7509 | – | 1.322e-06
[2], x2 = 0.775 | – | 1.255e-06
[2], x2 = 0.8123 | – | 1.128e-06
[2], x2 = 0.881 | – | 8.36e-07
[2], x2 = 0.9317 | – | 5.36e-07
[2], x2 = 0.9691 | – | 2.65e-07

CCCCCCCCCCC [undecane] + CCOC(C)=O
Conditions | excess molar enthalpy [kcal/mol] | excess molar volume [m3/mol]
[1], x2 = 0.1003 | 0.149 | –
[1], x2 = 0.1944 | 0.252 | –
[1], x2 = 0.2921 | 0.343 | –
[1], x2 = 0.3767 | 0.402 | –
[1], x2 = 0.4501 | 0.433 | –
[1], x2 = 0.509 | 0.443 | –
[1], x2 = 0.5537 | 0.441 | –
[1], x2 = 0.5965 | 0.436 | –
[1], x2 = 0.6065 | 0.433 | –
[1], x2 = 0.6498 | 0.413 | –
[1], x2 = 0.6942 | 0.39 | –
[1], x2 = 0.7366 | 0.364 | –
[1], x2 = 0.7848 | 0.326 | –
[1], x2 = 0.8361 | 0.272 | –
[1], x2 = 0.8884 | 0.206 | –
[1], x2 = 0.9357 | 0.141 | –
[1], x2 = 0.9742 | 0.0596 | –
[2], x2 = 0.0632 | – | 3.65e-07
[2], x2 = 0.1076 | – | 5.64e-07
[2], x2 = 0.1921 | – | 8.99e-07
[2], x2 = 0.2759 | – | 1.151e-06
[2], x2 = 0.3521 | – | 1.328e-06
[2], x2 = 0.4213 | – | 1.429e-06
[2], x2 = 0.4771 | – | 1.49e-06
[2], x2 = 0.5319 | – | 1.504e-06
[2], x2 = 0.5859 | – | 1.504e-06
[2], x2 = 0.6355 | – | 1.461e-06
[2], x2 = 0.6817 | – | 1.385e-06
[2], x2 = 0.7223 | – | 1.311e-06
[2], x2 = 0.7656 | – | 1.17e-06
[2], x2 = 0.7889 | – | 1.147e-06
[2], x2 = 0.8628 | – | 8.46e-07
[2], x2 = 0.9234 | – | 5.39e-07
[2], x2 = 0.9664 | – | 2.63e-07

CCCCCCCCCCCCCCCCC [heptadecane] + CCCOC(C)=O
Conditions | excess molar enthalpy [kcal/mol] | excess molar volume [m3/mol]
[1], x2 = 0.0838 | 0.115 | –
[1], x2 = 0.1596 | 0.208 | –
[1], x2 = 0.2462 | 0.301 | –
[1], x2 = 0.3255 | 0.371 | –
[1], x2 = 0.3884 | 0.406 | –
[1], x2 = 0.4477 | 0.435 | –
[1], x2 = 0.4925 | 0.447 | –
[1], x2 = 0.5313 | 0.451 | –
[1], x2 = 0.5702 | 0.451 | –
[1], x2 = 0.6288 | 0.438 | –
[1], x2 = 0.6644 | 0.424 | –
[1], x2 = 0.7023 | 0.403 | –
[1], x2 = 0.7423 | 0.38 | –
[1], x2 = 0.7826 | 0.346 | –
[1], x2 = 0.8239 | 0.308 | –
[1], x2 = 0.8654 | 0.262 | –
[1], x2 = 0.9064 | 0.203 | –
[1], x2 = 0.9452 | 0.138 | –
[1], x2 = 0.9772 | 0.0665 | –
[2], x2 = 0.2332 | – | 8.02e-07
[2], x2 = 0.3167 | – | 1.017e-06
[2], x2 = 0.4087 | – | 1.166e-06
[2], x2 = 0.4759 | – | 1.235e-06
[2], x2 = 0.5393 | – | 1.28e-06
[2], x2 = 0.5977 | – | 1.276e-06
[2], x2 = 0.6463 | – | 1.246e-06
[2], x2 = 0.6916 | – | 1.225e-06
[2], x2 = 0.7628 | – | 1.103e-06
[2], x2 = 0.8202 | – | 9.42e-07
[2], x2 = 0.891 | – | 6.77e-07
[2], x2 = 0.9375 | – | 4.38e-07
[2], x2 = 0.9705 | – | 2.25e-07

CCCCOC(C)=O [butyl ethanoate] + CCCCCCC
Conditions | excess molar enthalpy [kcal/mol] | excess molar volume [m3/mol]
[1], x1 = 0.0596 | 0.0656 | –
[1], x1 = 0.1274 | 0.12 | –
[1], x1 = 0.1982 | 0.165 | –
[1], x1 = 0.2667 | 0.196 | –
[1], x1 = 0.3335 | 0.218 | –
[1], x1 = 0.3922 | 0.23 | –
[1], x1 = 0.4492 | 0.235 | –
[1], x1 = 0.5003 | 0.236 | –
[1], x1 = 0.5104 | 0.235 | –
[1], x1 = 0.5381 | 0.234 | –
[1], x1 = 0.5567 | 0.232 | –
[1], x1 = 0.6057 | 0.224 | –
[1], x1 = 0.6593 | 0.211 | –
[1], x1 = 0.7144 | 0.19 | –
[1], x1 = 0.7729 | 0.161 | –
[1], x1 = 0.8331 | 0.126 | –
[1], x1 = 0.8932 | 0.0849 | –
[1], x1 = 0.9488 | 0.0439 | –
[2], x1 = 0.0555 | – | 1.92e-07
[2], x1 = 0.1132 | – | 3.36e-07
[2], x1 = 0.1672 | – | 4.34e-07
[2], x1 = 0.22 | – | 5.12e-07
[2], x1 = 0.2722 | – | 5.77e-07
[2], x1 = 0.3229 | – | 6.09e-07
[2], x1 = 0.3726 | – | 6.31e-07
[2], x1 = 0.4298 | – | 6.52e-07
[2], x1 = 0.4755 | – | 6.52e-07
[2], x1 = 0.5265 | – | 6.24e-07
[2], x1 = 0.5779 | – | 5.89e-07
[2], x1 = 0.6271 | – | 5.55e-07
[2], x1 = 0.6607 | – | 5.13e-07
[2], x1 = 0.7709 | – | 3.86e-07
[2], x1 = 0.8611 | – | 2.64e-07
[2], x1 = 0.9342 | – | 1.22e-07

CCCCCCCCCCCCCCC [pentadecane] + COC(C)=O
Conditions | excess molar enthalpy [kcal/mol] | excess molar volume [m3/mol]
[1], x2 = 0.091 | 0.14 | –
[1], x2 = 0.1824 | 0.272 | –
[1], x2 = 0.2689 | 0.391 | –
[1], x2 = 0.3572 | 0.488 | –
[1], x2 = 0.4282 | 0.549 | –
[1], x2 = 0.4946 | 0.586 | –
[1], x2 = 0.5472 | 0.6 | –
[1], x2 = 0.5908 | 0.601 | –
[1], x2 = 0.6306 | 0.594 | –
[1], x2 = 0.6559 | 0.584 | –
[1], x2 = 0.6897 | 0.567 | –
[1], x2 = 0.7229 | 0.544 | –
[1], x2 = 0.7578 | 0.52 | –
[1], x2 = 0.7947 | 0.484 | –
[1], x2 = 0.8299 | 0.438 | –
[1], x2 = 0.8675 | 0.385 | –
[1], x2 = 0.905 | 0.316 | –
[1], x2 = 0.94 | 0.238 | –
[1], x2 = 0.9723 | 0.148 | –
[2], x2 = 0.1527 | – | 8.72e-07
[2], x2 = 0.2889 | – | 1.467e-06
[2], x2 = 0.3786 | – | 1.739e-06
[2], x2 = 0.4627 | – | 1.898e-06
[2], x2 = 0.5368 | – | 1.979e-06
[2], x2 = 0.5993 | – | 2.002e-06
[2], x2 = 0.6511 | – | 1.945e-06
[2], x2 = 0.6955 | – | 1.858e-06
[2], x2 = 0.7356 | – | 1.746e-06
[2], x2 = 0.777 | – | 1.644e-06
[2], x2 = 0.8099 | – | 1.512e-06
[2], x2 = 0.8412 | – | 1.386e-06
[2], x2 = 0.8595 | – | 1.259e-06
[2], x2 = 0.9126 | – | 9.19e-07
[2], x2 = 0.9511 | – | 5.84e-07
[2], x2 = 0.9777 | – | 2.73e-07

CCOC(C)=O [ethyl acetate] + CCCCCCC
Conditions | excess molar enthalpy [kcal/mol] | excess molar volume [m3/mol]
[1], x1 = 0.0803 | 0.113 | –
[1], x1 = 0.1683 | 0.2 | –
[1], x1 = 0.2488 | 0.27 | –
[1], x1 = 0.323 | 0.317 | –
[1], x1 = 0.395 | 0.346 | –
[1], x1 = 0.4614 | 0.359 | –
[1], x1 = 0.5037 | 0.361 | –
[1], x1 = 0.546 | 0.363 | –
[1], x1 = 0.5784 | 0.357 | –
[1], x1 = 0.5813 | 0.357 | –
[1], x1 = 0.6222 | 0.341 | –
[1], x1 = 0.6647 | 0.322 | –
[1], x1 = 0.7146 | 0.296 | –
[1], x1 = 0.7646 | 0.26 | –
[1], x1 = 0.8157 | 0.217 | –
[1], x1 = 0.8649 | 0.17 | –
[1], x1 = 0.9129 | 0.115 | –
[1], x1 = 0.9591 | 0.0596 | –
[2], x1 = 0.0808 | – | 4.63e-07
[2], x1 = 0.143 | – | 7.33e-07
[2], x1 = 0.2084 | – | 9.35e-07
[2], x1 = 0.2751 | – | 1.105e-06
[2], x1 = 0.3329 | – | 1.204e-06
[2], x1 = 0.3968 | – | 1.263e-06
[2], x1 = 0.4462 | – | 1.303e-06
[2], x1 = 0.5057 | – | 1.309e-06
[2], x1 = 0.5536 | – | 1.289e-06
[2], x1 = 0.6019 | – | 1.236e-06
[2], x1 = 0.6506 | – | 1.163e-06
[2], x1 = 0.6848 | – | 1.107e-06
[2], x1 = 0.7249 | – | 1.019e-06
[2], x1 = 0.8166 | – | 7.67e-07
[2], x1 = 0.8964 | – | 4.43e-07
[2], x1 = 0.9478 | – | 2.47e-07
